What all share (type): biochemical
One assay addresses T1, c-Met kinase (Homo sapiens, UniProt P08581).
T1 construct: recombinant N-terminal 6×His-tagged c-Met kinase domain construct expressed from baculovirus; 6xHis (N); made in house
The assay can be described thus: c-Met kinase assay (33P incorporation into Poly(Glu-Tyr)). Conditions: 500 nM test compound. On the procedure: Inhibition of c-Met kinase activity by compounds disclosed herein was quantified by measuring the amount of [^33P] incorporated into the substrate in the presence of a test compound. Briefly, a reaction mixture of 25 μL final volume containing 5 ng of c-Met kinase (obtained by purifying recombinant N-terminal 6×His-tagged c-Met kinase domain construct expressed from baculovirus), 1 μg of the substrate (Poly (Glu-Tyr, 4:1, Sigma)), kinase reaction buffer (20 mM MOPS pH 7.0, 1 mM EDTA, 5% glycerol, 0.01% Brij-35, 0.1% β-mercaptoethanol, 1 mg/mL BSA, 100 μM ATP, 0.1 μCi per well [^33P]-γ-ATP (2,500-3,000 Ci/mmol)), and a test compound (500 nM, diluted with 4% DMSO) or DMSO (as the control) was incubated at 30° C. for 30 minutes. The reaction was stopped by adding 5 μL of 3% phosphoric acid solution. The resultant reaction solution was then harvested onto a filter plate (UniFilter-96 GF/B, PerkinElmer), washed 20 times for 5 min with d.d. H2O, and followed by the addition of 30 μL of MicroScint™-20 Cocktail (PerkinElmer). The plate was then sealed and counted using a TopCount scintillation detector (PerkinElmer). The percentage of inhibition rate of the test compound was calculated by dividing the retained radioactivity of the test sample with the retained radioactivity of the control sample and shown in Table 3.

Another assay concerns the target T2, Aurora B kinase (Homo sapiens, UniProt Q96GD4).
T2 construct: purchased Cell signaling
The assay can be described thus: Aurora B kinase assay ([γ-33P]ATP, CHOCKtide substrate). Conditions: 1.0 μM test compound. On the procedure: (§1) Inhibition of Aurora Kinase by the compounds disclosed herein was determined by incubating Aurora kinase, substrate, and a test compound together for a period of time followed by quantifying the resultant phosphorylated product. Specifically, in a well of a 96-well round bottom plate, 25 μL of a reaction mixture containing (1) a test compound disclosed herein (diluted from 9 μM to the desired final concentration), [γ-33P]ATP/ATP mix (10 μM), CHOCKtide (1 μg, Genesis Biotech Inc.), and Aurora-A (1 ng, purchased from Upstate); or (2) a test compound disclosed herein (diluted from 9 μM to the desired final concentration), [γ-33P]ATP/ATP mix (40 μM), CHOCKtide (1 μg, Genesis Biotech Inc.), and Aurora-B (2.5 ng, purchased from Cell signaling); was prepared and incubated at 33° C. for 30 minutes. The reaction was then stopped by adding 5 μL of 3% phosphoric acid. The resultant solution (30 μL) was later harvested by a UniFilter Plate GF/B (PerkinElmer) followed by adding 30 μL of the scintillation cocktail (MicroScint 20, PerkinElmer) to the well. The radioactivity retained on the filter membrane was measured by a luminescence counter (PerkinElmer). IC50 value is defined as the concentration of the test compound which achieves a half-maximal inhibition of the kinase activity.

The target of a further assay is T3, Aurora A kinase (Homo sapiens, UniProt O14965).
T3 construct: purchased Upstate
T3 sequence (O14965 1-403): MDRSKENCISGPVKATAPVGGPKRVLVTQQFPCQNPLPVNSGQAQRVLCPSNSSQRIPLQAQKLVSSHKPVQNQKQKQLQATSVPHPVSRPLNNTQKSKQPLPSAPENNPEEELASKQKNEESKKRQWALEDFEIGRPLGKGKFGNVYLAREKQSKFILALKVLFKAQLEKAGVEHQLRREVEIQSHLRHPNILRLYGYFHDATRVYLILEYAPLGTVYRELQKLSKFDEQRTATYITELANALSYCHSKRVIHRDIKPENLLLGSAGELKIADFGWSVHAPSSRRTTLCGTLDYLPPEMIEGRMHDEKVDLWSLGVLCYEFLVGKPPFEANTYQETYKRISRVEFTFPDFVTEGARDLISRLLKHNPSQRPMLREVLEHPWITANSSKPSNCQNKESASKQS
The assay can be described thus: Aurora A kinase assay ([γ-33P]ATP, CHOCKtide substrate). Conditions: 1.0 μM test compound. On the procedure:
as §1

The record followed here is US7897602B2, “Indolinone compounds as kinase inhibitors” (Development Center for Biotechnology, priority 2009, dated 2011).

Structures are written as SMILES.

T2 sequence (Q96GD4 whole entry): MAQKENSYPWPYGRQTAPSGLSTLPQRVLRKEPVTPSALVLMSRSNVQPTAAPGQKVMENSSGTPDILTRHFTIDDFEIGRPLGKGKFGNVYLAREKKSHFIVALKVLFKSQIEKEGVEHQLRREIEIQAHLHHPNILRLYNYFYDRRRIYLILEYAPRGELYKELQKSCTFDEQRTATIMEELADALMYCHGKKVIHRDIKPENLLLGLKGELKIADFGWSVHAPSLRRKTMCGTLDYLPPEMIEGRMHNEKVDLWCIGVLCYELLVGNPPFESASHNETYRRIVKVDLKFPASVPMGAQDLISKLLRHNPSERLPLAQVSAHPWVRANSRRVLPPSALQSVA
T1 sequence (P08581 1078-1345 limits assumed): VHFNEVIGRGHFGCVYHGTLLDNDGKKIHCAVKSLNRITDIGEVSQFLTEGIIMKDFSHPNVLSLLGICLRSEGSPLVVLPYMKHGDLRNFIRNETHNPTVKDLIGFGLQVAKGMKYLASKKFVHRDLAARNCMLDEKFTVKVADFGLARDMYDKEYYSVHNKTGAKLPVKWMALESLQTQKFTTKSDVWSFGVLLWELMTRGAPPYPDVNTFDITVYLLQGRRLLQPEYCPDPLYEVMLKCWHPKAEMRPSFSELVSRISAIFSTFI

In the case of `CCOC(=O)CCc1c(/C=C2\C(=O)Nc3ccc(OC)cc32)[nH]c2c1C(=O)CCCC2` [DCB-70154, (Z)-ethyl 3-(2-((5-methoxy-2-oxoindolin-3-ylidene)methyl)-4-oxo-1,4,5,6,7,8-hexahydrocyclohepta[b]pyrrol-3-yl)propanoate], the inhibition at 0.5 µM at c-Met kinase came out at 47.9%. Besides, the inhibition at 1 µM is 2.8% against Aurora B kinase and -0.3% on Aurora A kinase.
As to `COc1ccc2c(c1)/C(=C/c1[nH]c3c(c1CCC(=O)O)C(=O)CCCC3)C(=O)N2` [DCB-70155, (Z)-3-(2-((5-methoxy-2-oxoindolin-3-ylidene)methyl)-4-oxo-1,4,5,6,7,8-hexahydrocyclohepta[b]pyrrol-3-yl)propanoic acid], the inhibition at 0.5 µM at c-Met kinase was 9.1%. Also, the results for the inhibition at 1 µM at Aurora B kinase and against Aurora A kinase were 10.7% and 75.6%, respectively.
`CNC(=O)CCc1c(/C=C2\C(=O)Nc3ccc(S(=O)(=O)Cc4c(Cl)cccc4Cl)cc32)[nH]c2c1C(=O)CCC2` [DCB-70157, (Z)-3-(2-((5-(2,6-dichlorobenzylsulfonyl)-2-oxoindolin-3-ylidene)methyl)-4-oxo-4,5,6,7-tetrahydro-1H-indol-3-yl)-N-methylpropanamide]: at c-Met kinase, the inhibition at 0.5 µM came out at 85.6%. For the same compound, the inhibition at 1 µM amounted to 6.9% on Aurora B kinase and 13% on Aurora A kinase.
On the same counts, the results for `CCOC(=O)CCc1c(/C=C2\C(=O)Nc3ccc(S(=O)(=O)Cc4c(Cl)cccc4Cl)cc32)[nH]c2c1C(=O)CC(C)(C)C2` [DCB-70158, (Z)-ethyl 3-(2-((5-(2,6-dichlorobenzylsulfonyl)-2-oxoindolin-3-ylidene)methyl)-6,6-dimethyl-4-oxo-4,5,6,7-tetrahydro-1H-indol-3-yl)propanoate] are 85.4%, 6.1% and 5.2%.
The matching figures for `CC1(C)CC(=O)c2c([nH]c(/C=C3\C(=O)Nc4ccc(S(=O)(=O)Cc5c(Cl)cccc5Cl)cc43)c2CCC(=O)O)C1` [DCB-70159, (Z)-3-(2-((5-(2,6-dichlorobenzylsulfonyl)-2-oxoindolin-3-ylidene)methyl)-6,6-dimethyl-4-oxo-4,5,6,7-tetrahydro-1H-indol-3-yl)propanoic acid]: 81.3%, -5.5% and 13.9%.
The matching figures for `CCOC(=O)CCc1c(/C=C2\C(=O)Nc3ccc(S(=O)(=O)N4CCc5ccccc54)cc32)[nH]c2c1C(=O)CC(C)(C)C2` [DCB-70160, (Z)-ethyl 3-(2-((5-(indolin-1-ylsulfonyl)-2-oxoindolin-3-ylidene)methyl)-6,6-dimethyl-4-oxo-4,5,6,7-tetrahydro-1H-indol-3-yl)propanoate]: 59.1%, 6.1% and 5%.
On to `CC1(C)CC(=O)c2c([nH]c(/C=C3\C(=O)Nc4ccc(S(=O)(=O)N5CCc6ccccc65)cc43)c2CCC(=O)O)C1` [DCB-70161, (Z)-3-(2-((5-(indolin-1-ylsulfonyl)-2-oxoindolin-3-ylidene)methyl)-6,6-dimethyl-4-oxo-4,5,6,7-tetrahydro-1H-indol-3-yl)propanoic acid], for which, on c-Met kinase, the inhibition at 0.5 µM was 59.7%. In addition, the inhibition at 1 µM came out at 14.6% on Aurora B kinase and 78.8% against Aurora A kinase.
The matching figures for `CCOC(=O)CCc1c(/C=C2\C(=O)Nc3ccc(OC)cc32)[nH]c2c1C(=O)CCC2` [DCB-70166, (Z)-ethyl 3-(2-((5-methoxy-2-oxoindolin-3-ylidene)methyl)-4-oxo-4,5,6,7-tetrahydro-1H-indol-3-yl)propanoate]: 21.6%, 13% and 48.8%.
In the case of `CCN(CC)CCNC(=O)CCc1c(/C=C2\C(=O)Nc3ccc(S(=O)(=O)Cc4c(Cl)cccc4Cl)cc32)[nH]c2c1C(=O)CCC2` [DCB-70223, (Z)-3-(2-((5-(2,6-dichlorobenzylsulfonyl)-2-oxoindolin-3-ylidene)methyl)-4-oxo-4,5,6,7-tetrahydro-1H-indol-3-yl)-N-(2-(diethylamino)ethyl)propanamide], the inhibition at 1 µM on Aurora B kinase was found to be 43.7%; against Aurora A kinase, 68.5%.
